Test results reported in article PMC10118193, “Biochemical characterization of a GDP-mannose transporter from Chaetomium thermophilum” (PLOS ONE, 2023).

Assays:
CtVrg4Δ31 [1] = molecular target: T1, CtVrg4Δ31 (Thermochaetoides thermophila, UniProt G0S534); experiment: competition of [3H]GMP uptake into proteoliposomes; format: biochemical
T1 construct: gene CTHT_0023930; C-terminal truncation lacking the last 31 residues (Golgi retrieval signal), residues 1-354, N-terminal 12-His tag, expressed in S. cerevisiae FGY217, purified in DDM

CtVrg4Δ31 [2] = molecular target: T1, CtVrg4Δ31; experiment: thermal shift titration (Tycho NT.[…]); format: binding
[3] = molecular target: T2, CtVrg4 (Vrg4 from Chaetomium thermophilum) (Thermochaetoides thermophila, UniProt G0S534, Y310F); experiment: thermal shift titration (Tycho NT.[…]); format: binding
T2 construct: gene CTHT_0023930; full length, 385 residues, N-terminal 12-His tag, about 37 kDa, expressed in S. cerevisiae FGY217, purified in DDM

[4] = molecular target: T3, CtVrg4 (Vrg4 from Chaetomium thermophilum) (Thermochaetoides thermophila, UniProt G0S534); experiment: competition of [3H]GMP uptake into proteoliposomes; format: biochemical
T3 construct: gene CTHT_0023930; full length, 385 residues, N-terminal 12-His tag, about 37 kDa, expressed in S. cerevisiae FGY217, purified in DDM

[5] = molecular target: T3, CtVrg4 (Vrg4 from Chaetomium thermophilum); experiment: thermal shift titration (Tycho NT.[…]); format: binding
[6] = molecular target: T2, CtVrg4 (Vrg4 from Chaetomium thermophilum); experiment: competition of [3H]GMP uptake into proteoliposomes; format: biochemical
[7] = molecular target: T4, Chymotrypsin-cleaved CtVrg4 (cCtVrg4) (Thermochaetoides thermophila, UniProt G0S534); experiment: exchange of internal GDP-mannose with external [3H]GMP in proteoliposomes; format: biochemical; conditions: yeast polar lipid proteoliposomes; internal GDP-mannose 1-1000 μM; 0.384 μM external [3H]GMP; room temperature, 10 min
T4 construct: gene CTHT_0023930; full-length His-tagged protein cut by chymotrypsin (50:1, 2 h, 18 °C); crystals of cleaved protein ~25 kDa
T4 sequence (G0S534 entry or part of it): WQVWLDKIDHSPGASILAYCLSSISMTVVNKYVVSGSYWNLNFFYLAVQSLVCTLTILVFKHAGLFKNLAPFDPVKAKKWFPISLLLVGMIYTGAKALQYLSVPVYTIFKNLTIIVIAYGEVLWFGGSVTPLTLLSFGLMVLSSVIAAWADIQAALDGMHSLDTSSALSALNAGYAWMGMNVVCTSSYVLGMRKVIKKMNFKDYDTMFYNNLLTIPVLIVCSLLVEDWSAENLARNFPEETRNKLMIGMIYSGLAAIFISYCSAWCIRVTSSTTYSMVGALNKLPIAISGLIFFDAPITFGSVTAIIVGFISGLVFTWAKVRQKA

T3 sequence (G0S534 entry or part of it): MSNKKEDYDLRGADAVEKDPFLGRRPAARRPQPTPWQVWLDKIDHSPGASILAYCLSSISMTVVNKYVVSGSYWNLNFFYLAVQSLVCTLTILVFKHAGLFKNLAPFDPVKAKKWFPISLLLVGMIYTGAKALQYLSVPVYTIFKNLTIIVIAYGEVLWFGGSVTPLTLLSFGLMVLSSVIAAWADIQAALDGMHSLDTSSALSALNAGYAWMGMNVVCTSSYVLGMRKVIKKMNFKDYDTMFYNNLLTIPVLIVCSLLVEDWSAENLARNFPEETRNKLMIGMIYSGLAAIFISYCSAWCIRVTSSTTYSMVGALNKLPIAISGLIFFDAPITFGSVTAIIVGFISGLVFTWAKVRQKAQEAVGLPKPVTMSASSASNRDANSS
T2 sequence (G0S534 entry or part of it Y310F): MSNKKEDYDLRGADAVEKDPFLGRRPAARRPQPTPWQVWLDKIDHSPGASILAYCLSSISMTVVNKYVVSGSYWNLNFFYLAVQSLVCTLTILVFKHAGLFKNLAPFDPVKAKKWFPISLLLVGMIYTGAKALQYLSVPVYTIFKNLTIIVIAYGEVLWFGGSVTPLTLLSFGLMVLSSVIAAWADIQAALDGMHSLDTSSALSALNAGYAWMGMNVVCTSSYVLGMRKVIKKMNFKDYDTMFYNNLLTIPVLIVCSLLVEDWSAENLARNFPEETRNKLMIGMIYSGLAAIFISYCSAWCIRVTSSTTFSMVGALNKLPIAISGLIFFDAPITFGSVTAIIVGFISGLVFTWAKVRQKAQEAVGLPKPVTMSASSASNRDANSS
T1 sequence (G0S534 entry or part of it, stated change not applied): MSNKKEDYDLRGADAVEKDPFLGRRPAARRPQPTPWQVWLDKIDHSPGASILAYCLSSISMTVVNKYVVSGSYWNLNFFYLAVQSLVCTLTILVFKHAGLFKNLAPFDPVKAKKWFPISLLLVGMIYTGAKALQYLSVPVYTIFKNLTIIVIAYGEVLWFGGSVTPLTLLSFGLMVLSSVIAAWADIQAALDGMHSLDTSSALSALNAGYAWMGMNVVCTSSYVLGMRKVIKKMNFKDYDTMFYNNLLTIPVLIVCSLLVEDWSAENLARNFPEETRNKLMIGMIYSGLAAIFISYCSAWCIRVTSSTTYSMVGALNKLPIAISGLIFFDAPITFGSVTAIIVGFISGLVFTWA

IC50 (CtVrg4Δ31 [1])	Kd (CtVrg4Δ31 [2])	Kd [3]	IC50 [4]	Kd [5]	IC50 [6]	Km [7]	SMILES
48 µM	58.5 µM	130 µM	25.5 µM	74.3 µM	47.1 µM	32.1 µM	Nc1nc2c(ncn2[C@@H]2O[C@H](COP(=O)(O)OP(=O)(O)O[C@H]3O[C@H](CO)[C@@H](O)[C@H](O)[C@@H]3O)[C@@H](O)[C@H]2O)c(=O)[nH]1 [GDP-mannose]
–	63.2 µM	139 µM	–	143 µM	–	–	Nc1nc2c(ncn2[C@@H]2O[C@H](COP(=O)(O)O)[C@@H](O)[C@H]2O)c(=O)[nH]1 [GMP]
